From patent publication US11549123B2, “Plant EPSP synthases and methods of use” (PIONEER HI-BRED INTERNATIONAL, INC., priority 2015, dated 2023)
pKi: −log10 of the molar value.

Key:
[1] = target: T1, Zea mays EPSPS variant Zm-H6 (868-H6) with H54E (H6-H54E) (Zea mays, UniProt O24566, A1R/A3W/A415G/A71Q/D401G/E301S/E390G/G101A/H53E/I207L/K83R/L97C/T278A/T360S/T440Q/V437R); experiment: Substrate saturation kinetic analysis with glyphosate, H6-H54E; type: biochemical
T1 construct: 868-H6 plus H54E; E. coli BL21(DE3), Ni-NTA purified
T1 sequence (O24566 with tags, fused parts or gaps A1R/A3W/H53E/A71Q/K83R/L97C/G101A/I207L/T278A/E301S/T360S/E390G/D401G/A415G/V437R/T440Q): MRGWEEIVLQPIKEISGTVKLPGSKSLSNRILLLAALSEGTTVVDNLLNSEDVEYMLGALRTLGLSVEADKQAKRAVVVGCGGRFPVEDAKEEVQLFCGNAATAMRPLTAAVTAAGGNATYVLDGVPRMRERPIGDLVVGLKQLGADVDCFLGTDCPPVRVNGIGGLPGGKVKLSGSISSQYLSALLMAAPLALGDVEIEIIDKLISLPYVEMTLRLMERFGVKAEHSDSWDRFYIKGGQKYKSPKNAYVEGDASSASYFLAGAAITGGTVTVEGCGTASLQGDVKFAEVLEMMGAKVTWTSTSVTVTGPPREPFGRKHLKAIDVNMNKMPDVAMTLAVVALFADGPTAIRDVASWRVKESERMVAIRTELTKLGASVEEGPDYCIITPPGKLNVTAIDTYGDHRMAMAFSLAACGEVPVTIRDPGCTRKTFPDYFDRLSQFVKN

[2] = target: Oryza sativa EPSPS with 868-H6 mutations, SEQ ID NO:11 (Oryza sativa, UniProt Q93VK6, A482G/A67R/A69W/D368S/D468G/E457G/G168A/I274L/K149R/L164C/T345A/T427S/T507Q/V137Q/V504R); experiment: EPSPS substrate saturation kinetics, rice H6; type: biochemical
Sequence of Oryza sativa EPSPS with 868-H6 mutations, SEQ ID NO:11 (Q93VK6 64-511 with the stated changes): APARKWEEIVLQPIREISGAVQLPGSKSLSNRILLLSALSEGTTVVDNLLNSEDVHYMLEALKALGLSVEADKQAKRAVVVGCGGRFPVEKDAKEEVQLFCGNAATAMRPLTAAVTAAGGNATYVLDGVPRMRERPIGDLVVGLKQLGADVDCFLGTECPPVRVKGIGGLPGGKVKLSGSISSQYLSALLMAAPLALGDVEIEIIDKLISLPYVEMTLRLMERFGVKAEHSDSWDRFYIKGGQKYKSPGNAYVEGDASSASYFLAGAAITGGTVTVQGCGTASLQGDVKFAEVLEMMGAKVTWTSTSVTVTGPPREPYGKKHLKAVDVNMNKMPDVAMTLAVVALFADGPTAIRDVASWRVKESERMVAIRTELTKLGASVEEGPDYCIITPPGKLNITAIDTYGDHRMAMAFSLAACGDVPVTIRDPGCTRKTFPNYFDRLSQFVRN
Method: (§1) EPSPS activity was determined by quantifying the phosphate generated from the EPSPS reaction. Release of inorganic phosphate was coupled to reaction with 2-amino-6-mercapto-7-methylpurine ribonucleoside, catalyzed by purine-nucleoside phosphorylase (M R Webb, Proc. Natl. Acad. Sci. 89:4884-4887, 1992). The absorbance change that occurs was monitored at 360 nm, where the extinction is 11,200 M^−1 cm^−1, with a Spectramax plate reader (Molecular Devices). To determine kinetic parameters, the varied substrate was present at seven concentrations (the eighth being the blank, containing no substrate) ranging from 4 to 400 uM and the unvaried substrate present at saturation. […] Reactions were monitored with a Spectramax plate reader. […] KI was then calculated from the following form of the Michaelis-Menten equation for competitive inhibition: KI=KM[I]/(KM app−KM) KM approximates the dissociation constant of the enzyme-substrate complex while kcat is the rate of conversion of substrate to product when the substrate concentration is saturating. kcat/KM is a widely accepted parameter for catalytic efficiency when substrate concentration is low (˜KM). […] The parameter kcat/KM×KI is used to quantify both catalytic efficiency and insensitivity and thus the overall fitness of the enzyme. […]

Bacterial EPSPS (CP4) = Bacterial EPSPS (CP4) (Agrobacterium sp., UniProt Q9R4E4); experiment: Substrate saturation kinetic analysis with glyphosate, bacterial EPSPS (CP4)
Sequence of Bacterial EPSPS (CP4) (Q9R4E4 whole entry): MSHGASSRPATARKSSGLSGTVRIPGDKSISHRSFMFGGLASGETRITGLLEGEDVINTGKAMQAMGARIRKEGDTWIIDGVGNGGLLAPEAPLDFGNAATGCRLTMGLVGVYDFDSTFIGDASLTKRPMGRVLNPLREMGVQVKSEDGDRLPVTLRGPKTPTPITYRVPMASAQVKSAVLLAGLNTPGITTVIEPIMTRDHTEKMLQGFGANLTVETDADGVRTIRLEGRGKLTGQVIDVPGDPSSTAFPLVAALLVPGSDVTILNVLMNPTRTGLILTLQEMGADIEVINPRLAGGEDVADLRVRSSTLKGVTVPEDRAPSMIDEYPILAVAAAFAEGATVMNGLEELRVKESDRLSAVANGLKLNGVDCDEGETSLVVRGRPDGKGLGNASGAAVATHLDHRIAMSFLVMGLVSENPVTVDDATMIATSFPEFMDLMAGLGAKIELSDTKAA
Source text: There are several practical considerations for accurately estimating (kcat/KM)*KI with the rapid method. […] If inhibition is too little, v0-vi will be small, and the error in the multiplier vi×v0/(v0-vi) will be large. […] High substrate concentration obscures sensitivity to the inhibitor and reduces stringency for capturing improvements in KM.

[3] = target: Zea mays EPSPS variant 868-H6 (A2R, A4W, A72Q, K84R, L98C, G102A, I208L, T279A, E302S, T361S, E391G, D402G, A416G, V438R, T441Q), SEQ ID NO:5 (Zea mays, UniProt O24566, A1R/A3W/A415G/A71Q/D401G/E301S/E390G/G101A/I207L/K83R/L97C/T278A/T360S/T440Q/V437R); experiment: EPSPS substrate saturation kinetics, 868-H6; type: biochemical
Method: as §1

[4] = PEP as substrate, glyphosate as inhibitor

## O=C(O)CNCP(=O)(O)O [glyphosate, N-phosphonomethylglycine]
[1]
  pKi: 3.31
[1]; substrate saturation, H6-H54E
  (kcat/KM)*KI: 4340
[2]
  pKi: 3.04
[2]; [4]
  (kcat/KM)*KI: 9200
Bacterial EPSPS (CP4)
  pKi: 2.85
Bacterial EPSPS (CP4); substrate saturation, Bacterial EPSPS / CP4
  (kcat/KM)*KI: 108900
[3]
  pKi: 3.20
[3]; [4]
  (kcat/KM)*KI: 10070
